Measured values reported in article PMC9393390 (Frontiers in Pharmacology, 2022).
Read-outs that look alike come from different tables or passages of the source.

How the values were obtained:
[1] = target: T1, SARS-CoV-2-RBD (S-RBD) (Severe acute respiratory syndrome coronavirus 2, UniProt P0DTC2); assay: Surface plasmon resonance (SPR) binding to immobilized S-RBD
T1 construct: purchased Sino Biological

[2] = target: T2, hACE2 (Homo sapiens, UniProt Q9BYF1); assay: Surface plasmon resonance (SPR) binding to immobilized hACE2
T2 construct: purchased Sino Biological
T2 sequence (Q9BYF1 18-805): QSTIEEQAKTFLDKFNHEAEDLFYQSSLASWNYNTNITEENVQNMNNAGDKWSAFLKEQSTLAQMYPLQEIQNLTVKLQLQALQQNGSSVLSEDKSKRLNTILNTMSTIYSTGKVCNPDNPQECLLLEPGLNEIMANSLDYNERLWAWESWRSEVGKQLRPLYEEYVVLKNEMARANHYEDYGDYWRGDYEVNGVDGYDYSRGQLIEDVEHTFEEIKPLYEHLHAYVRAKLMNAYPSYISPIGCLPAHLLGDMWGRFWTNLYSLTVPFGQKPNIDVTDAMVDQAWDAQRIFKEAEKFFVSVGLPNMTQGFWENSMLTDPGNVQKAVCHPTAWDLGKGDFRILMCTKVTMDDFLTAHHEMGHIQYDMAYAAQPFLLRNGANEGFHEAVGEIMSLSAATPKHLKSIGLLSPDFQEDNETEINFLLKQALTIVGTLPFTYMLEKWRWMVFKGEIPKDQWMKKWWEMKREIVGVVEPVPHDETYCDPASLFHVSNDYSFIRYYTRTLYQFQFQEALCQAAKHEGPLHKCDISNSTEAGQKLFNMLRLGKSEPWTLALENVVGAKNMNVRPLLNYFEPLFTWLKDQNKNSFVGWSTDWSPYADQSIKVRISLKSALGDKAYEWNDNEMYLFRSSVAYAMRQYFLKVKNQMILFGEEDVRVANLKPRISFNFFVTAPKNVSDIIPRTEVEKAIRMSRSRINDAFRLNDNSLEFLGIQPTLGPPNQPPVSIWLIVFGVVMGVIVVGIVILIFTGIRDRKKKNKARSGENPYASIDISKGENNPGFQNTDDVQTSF
Experimental: The recombinant S-RBD (Sino Biological, Beijing, China) and hACE2 protein (Sino Biological, Beijing, China) were used for surface plasmon resonance (SPR) analysis using a Biacore 8K instrument (Biacore, Uppsala, Sweden) as previously described ([Chu et al., 2018a]; [Chu et al., 2018b]). Each target was immobilized onto flow cells in a CM5 sensor chip (GE Healthcare) via the amine-coupling method. Briefly, S-RBD was diluted in 10 mM pH 5.5 acetate to 20 µg/ml, while hACE2 was diluted in 10 mM pH 4.5 acetate to 20 µg/ml. Then the protein solutions were injected individually on the carboxyl modified sensor surface to form amine bonds. Both S-RBD and hACE2 immobilized levels were about 10,000 RU. Binding analyses were carried out at 25 °C and a flow rate of 30 μl min^−1. The retrieved drugs in a running buffer (1×PBS, 0.05% Tween 20 and 5% dimethyl sulfoxide, pH 7.4) were run over each target at gradient concentrations as indicated. An empty flow cell, without any immobilized protein, was used as a deducted reference. The binding curves were analyzed using a kinetic binding model supplied with Biacore Evaluation Software (GE Healthcare).
To evaluate the retrieved inhibitors against the S-RBD-hACE2, surface plasmon resonance (SPR) was used to determine the binding affinities of the 20 retrieved drugs to S-RBD and hACE2.
SPR analysis was performed to assess the retrieved drugs binding to hACE2 at gradient concentrations. The binding curves were analyzed using a kinetic analysis supplied with Biacore Evaluation Software. Data are presented as RU over time (s). The K D were calculated using a 1:1 binding model.

[3] = target: S-RBD binding to hACE2 (Severe acute respiratory syndrome coronavirus 2, UniProt P0DTC2); assay: Competitive inhibition ELISA (SARS-CoV-2 inhibitor screening kit); format: biochemical; details: 1 μM
[4] = target: T3, S-RBD binding to hACE2 (Homo sapiens, UniProt Q9BYF1); assay: SPR competition binding experiment (S-RBD on immobilized hACE2); details: competitive SPR, 40 nM S-RBD, 25 μM to 0.012 μM
T3 construct: purchased Sino Biological
T3 sequence (Q9BYF1 18-740): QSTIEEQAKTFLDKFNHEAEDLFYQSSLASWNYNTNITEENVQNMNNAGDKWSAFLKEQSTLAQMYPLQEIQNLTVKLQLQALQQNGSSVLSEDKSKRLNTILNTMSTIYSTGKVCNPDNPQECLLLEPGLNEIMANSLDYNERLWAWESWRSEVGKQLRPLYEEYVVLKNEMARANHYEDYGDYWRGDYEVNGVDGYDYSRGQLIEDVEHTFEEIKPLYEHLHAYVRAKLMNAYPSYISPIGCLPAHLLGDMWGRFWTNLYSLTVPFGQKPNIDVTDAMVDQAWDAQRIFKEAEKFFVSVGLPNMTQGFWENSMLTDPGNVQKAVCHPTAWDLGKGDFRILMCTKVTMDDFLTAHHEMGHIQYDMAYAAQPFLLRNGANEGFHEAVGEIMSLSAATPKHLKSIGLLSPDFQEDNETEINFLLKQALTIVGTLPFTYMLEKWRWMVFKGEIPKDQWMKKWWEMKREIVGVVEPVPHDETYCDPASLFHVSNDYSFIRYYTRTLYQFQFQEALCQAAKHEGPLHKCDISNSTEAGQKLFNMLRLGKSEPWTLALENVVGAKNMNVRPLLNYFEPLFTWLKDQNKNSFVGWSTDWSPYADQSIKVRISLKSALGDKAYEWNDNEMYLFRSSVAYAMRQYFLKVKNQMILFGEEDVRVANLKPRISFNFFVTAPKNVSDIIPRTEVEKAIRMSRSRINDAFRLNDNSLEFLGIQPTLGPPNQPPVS

[5] = SPR, 25 °C, 1:1 binding model, read-out: S-RBD K D
[6] = SPR, 25 °C, 1:1 binding model, read-out: ACE2 K D

Compound | Kd [1] [µM] | Kd [2] [µM] | other results
Nc1c(Br)cc(Br)cc1CN[C@H]1CC[C@H](O)CC1 [Ambroxol] | 21.2 | – | –
C[C@@H]1[C@H](O)[C@@H](C)/C=C/C=C/C=C/C=C/C=C/C=C/C=C/[C@H](O[C@@H]2O[C@H](C)[C@@H](O)[C@H](N)[C@@H]2O)C[C@@H]2O[C@](O)(C[C@@H](O)C[C@@H](O)[C@H](O)CC[C@@H](O)C[C@@H](O)CC(=O)O[C@H]1C)C[C@H](O)[C@H]2C(=O)O [Amphotericin B] | 1.01 | 9.49 | –
Cc1ccc([C@@H]2O[C@H](CO)[C@@H](O)[C@H](O)[C@H]2O)cc1Cc1ccc(-c2ccc(F)cc2)s1 [Canagliflozin] | – | – | Kd [1, 5]: 23.1 µM
Cc1cc(OCCCS(C)(=O)=O)cc(C)c1-c1cccc(COc2ccc3c(c2)OC[C@H]3CC(=O)O)c1 [Fasiglifam] | 42.2 | 10.5 | –
COC(=O)C1=CO[C@@H](O[C@@H]2O[C@H](CO)[C@@H](O)[C@H](O)[C@H]2O)[C@@H]2C(CO)=CC[C@H]12 [Geniposide] | 54.9 | – | –
CC(C)=CCC[C@](C)(O[C@@H]1O[C@H](CO[C@@H]2O[C@@H](CO)[C@H](O)[C@H]2O)[C@@H](O)[C@H](O)[C@H]1O)[C@H]1CC[C@]2(C)[C@@H]1[C@H](O)C[C@@H]1[C@@]3(C)CC[C@H](O[C@@H]4O[C@H](CO)[C@@H](O)[C@H](O)[C@H]4O[C@@H]4O[C@H](CO)[C@@H](O)[C@H](O)[C@H]4O)C(C)(C)[C@@H]3CC[C@]12C [Ginsenoside Rc] | 79.8 | – | –
CC[C@H](C)C(=O)O[C@H]1CCC=C2C=C[C@H](C)[C@H](CC[C@@H]3C[C@@H](O)CC(=O)O3)[C@H]21 [Mevastatin] | 273 | – | –
C[C@@H]1[C@H](O)[C@@H](C)/C=C/C=C/CC/C=C/C=C/C=C/C=C/C(O[C@H]2O[C@H](C)[C@@H](O)[C@H](N)[C@@H]2O)CC2O[C@](O)(CC(O)C(O)CCC(O)CC(O)CC(O)CC(=O)O[C@H]1C)CC(O)C2C(=O)O (some centres unmarked) [Nystatin] | – | – | Kd [1, 5]: 215 µM
COC(=O)C1=CC[C@@]23CC[C@@H]([C@@](C)(/C=C/C=C(\C)C(=O)O)OC2=O)[C@@]3(OC(C)=O)CC1 [Pseudolaric acid B] | – | 53.8 | –
CCC(C)(C)C(=O)O[C@H]1C[C@@H](C)C=C2C=C[C@H](C)[C@H](CC[C@@H]3C[C@@H](O)CC(=O)O3)[C@H]21 [Simvastatin] | – | 35.8 | –
O=S(=O)(O)Oc1ccc(C(c2ccc(OS(=O)(=O)O)cc2)c2ccccn2)cc1 [Sodium Picosulfate] | 16 | 45.4 | –
O=C(OCC1OC(OC(=O)c2cc(O)c(O)c(OC(=O)c3cc(O)c(O)c(O)c3)c2)C(OC(=O)c2cc(O)c(O)c(OC(=O)c3cc(O)c(O)c(O)c3)c2)C(OC(=O)c2cc(O)c(O)c(OC(=O)c3cc(O)c(O)c(O)c3)c2)C1OC(=O)c1cc(O)c(O)c(OC(=O)c2cc(O)c(O)c(O)c2)c1)c1cc(O)c(O)c(OC(=O)c2cc(O)c(O)c(O)c2)c1 (centres unmarked) [Tannic acid] | – | – | prevention of S-RBD binding to hACE2 [3]: prevented S-RBD from binding to hACE2; Kd ([2]; read-out: ACE2 K D, SPR, 25 °C, 1:1 binding model): 8.55 µM; interference with binding of S-RBD to hACE2 [4]: interfered with the binding of the S-RBD to hACE2 in a dose-dependent manner
Aescin | – | – | Kd [2, 6]: 105 µM
Sodium aescinate | – | – | Kd [1, 5]: 16.8 µM
Teichomycin | – | – | Kd [2, 6]: 250 µM
